Records with an inconclusive call do not appear.
Tested on: M. tuberculosis H37Rv growth inhibition, 7H9 media
Experiment: M. tuberculosis growth inhibition, HTS (AID 449762);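 note: bacterial growth assessed after seven days of incubation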
Conditions: for IC90: measured here: IC90 growth inhibition

| SMILES | IC50 [µM] | IC90 [µM] |
| --- | --- | --- |
| Cc1ccc(/C=C2\SC(N3CCCC3)=NC2=O)cc1 | 0.38 | 1.68 |
| O=C(/C=C/Sc1ncn[nH]1)c1ccc(Cl)cc1 | 16.8 | 43.8 |
| CCCCCNc1nc(N2CCCC2)c2c(c1C#N)CCN(C)C2 | 83.7 | > 100 |
| CC(C)CNc1nnnc2c1sc1nc(N3CCOCC3)c3c(c12)CC(C)(C)SC3 | 74 | > 100 |
| CC(OC(=O)c1cnc2ccccc2n1)c1ccccc1Cl (stereo not given) | 13.1 | 37 |
| Clc1ccc2c(c1)C(c1ccccc1Cl)=NCc1nnc(N3CCN(CCOc4ccccc4)CC3)n1-2 | 43 | 48 |
| Cc1nc2ccc(NC(=O)N(C(C)C)C(C)C)cc2s1 |  | > 100 |
| COC(=O)CSc1ncnc2c1cnn2-c1ccc(C)cc1C | 3.82 | 7.95 |
| COc1ccc(-c2cc3c(=O)n(CC(=O)NCCCN4CCC(Cc5ccccc5)CC4)ncn3n2)cc1 | 23.7 | 26.2 |
| CCCc1cc(NC(=O)CCl)n(-c2ccccc2)n1 | 0.7 | 2.29 |
| O=S(=O)(Nc1ccc2[nH]ncc2c1)c1ccccc1Cl | 11.6 | 19.5 |
| O=C(CSc1nc2ncc(Br)cc2[nH]1)Nc1ccc2c(c1)OCO2 | 6.01 | 16.1 |
| CC1=NNC(=O)/C1=C\c1cn(-c2ccccc2)nc1-c1ccc(Cl)cc1 | 28.7 | 37.2 |
| O=C(COC(=O)c1cccs1)c1ccccc1 | 45 | > 100 |
| CCOC(=O)c1ccc(N=Cc2c(O)c3ccccc3oc2=O)cc1 | 66 | > 100 |
| C/C(=N\NC(=O)c1ccc(O)cc1)c1ccc2c(c1)Nc1ccccc1S2 | 24.8 | 62.8 |
| Cc1ccc(C)c(NNC(N)=S)c1 | 6.39 | 15.6 |
| Nc1c2c(nc3ccn(Cc4ccccc4)c(=O)c13)CCC2 | 13.7 | 33.6 |
| COc1cc(/C=C(\C#N)c2nc3c(s2)CC(C)CC3)ccc1O (stereo not given) | 31.5 | 63.5 |
| Cc1ccc2c(c1)c1ncnc(N3CCc4ccccc4C3)c1n2C | 81.1 | > 100 |
| C(=N\Nc1nc(-c2ccccc2)cs1)/c1ccncc1 | 47.3 | 66.4 |
| COc1ccc(-c2csc(NC(C)c3nc4cc(Cl)c(N5CCCCC5)cc4n3CCCO)n2)cc1 (stereo not given) | 11.2 | 12.7 |
| Brc1cccc2sc(N3CCN(c4ccccc4)CC3)nc12 | 44.5 | > 100 |

| SMILES | IC50 [µM] | IC90 [µM] |
| --- | --- | --- |
| CC(=O)OC1=Cc2c(ccc3ccc(=O)oc23)OC1(C)C | 14 | 31.6 |
| CSc1ccccc1C(=O)NC1CCSc2ccccc21 (stereo not given) | 9.3 | > 100 |
| Cc1ccc(Cn2ccsc2=NC(=O)CCl)cc1 | 0.57 | 1.52 |
| Cc1ccc2[nH]c3c(c2c1)CN(C(=O)CN1CCN(c2ccccn2)CC1)CC3 |  | > 100 |
| Cc1ccc(C(=O)c2oc3ccc(Cl)cc3c2NC(=O)CN2CCN(C)CC2)cc1 | 14.6 | 17.8 |
| C/C(=N\NC(=O)c1nnn(-c2nonc2N)c1CN(C)c1ccccc1)c1ccccn1 | 8.5 | 15.7 |
| Cc1cc(C)n2nc(N)c(N=Nc3ccccc3)c2n1 | 2.9 | 3.27 |
| CC(=O)c1ccc(-n2cc(-c3ccc(C(C)(C)C)cc3)[n+]3c2SCCC3)cc1 | 4.34 | 29.5 |
| CCc1nnc(N/N=C/c2cc(C)c(C)cc2C)n1N | 7.24 | 16 |
| Cc1ccc(-c2nc3ccsc3c(=O)o2)cc1 | 0.61 | > 100 |
| Cc1ccc(S(=O)(=O)N(C)c2ccc(OCC(=O)OCc3ccc(C#N)cc3)cc2)cc1 | 8.71 | 13.8 |
| CCOC(=O)c1ccc(NC(=O)C(C)Sc2nc(O)c(-c3ccccc3)c(=O)[nH]2)cc1 (stereo not given) | 5.47 | 22.6 |
| Cc1cccc2c1-c1sc(C(=O)Nc3ccccc3N3CCN(C)CC3)cc1CO2 | 17.9 | 25.1 |
| O=C(/C=C/c1cccnc1)c1cccc(O)c1 | 6.48 | 14.8 |
| CCCn1nnc(NC(=O)COc2ccc(CC)cc2)n1 | 29.7 | > 100 |
| O=C(C1=C[C@@H](c2csc3ccccc23)C[C@@H](OCCCCO)O1)N1CCN(Cc2ccc3c(c2)OCO3)CC1 | 28.5 | 47.8 |
| Cc1c(Cl)c([N+](=O)[O-])nn1Cc1ccc(C(=O)N/N=C\c2cccc(Br)c2)o1 | 66.7 | > 100 |
| CC(C)Cn1c(N2CCN(C(=O)/C=C/c3ccccc3)CC2)nc2ccccc21 | 23.7 | 27.2 |
| O=C(OCC(=O)c1c[nH]c2ccccc12)c1cc(Br)ccc1O | 9.23 | 15.3 |
| COC(=O)CSc1ncnc2c1sc1nc3c(cc12)COC(C)(C)C3 | 3.68 | 17.3 |
| O=[N+]([O-])c1ccc(O)c(-c2cc(C(F)(F)F)nc(-c3ccccc3)n2)c1 | 22.2 | 23.3 |
| CCCc1cc(-c2nc(-c3ccc(Br)cc3)cs2)ccn1 | 10.3 | 20.6 |
| O=C(Cc1ccc([N+](=O)[O-])cc1)Nc1cc(C(F)(F)F)cc(C(F)(F)F)c1 | 2.74 | 3.12 |

| SMILES | IC50 [µM] | IC90 [µM] |
| --- | --- | --- |
| Cc1c(CCC(=O)NCCCn2ccnc2)c(=O)oc2c(C)c3occ(C(C)(C)C)c3cc12 | 23.1 | 36.3 |
| Cc1cc(=O)n2[nH]c(Nc3cccc(Cl)c3)nc2n1 | 20.4 | 33 |
| Cc1ccc(C)c(S(=O)(=O)N2CCC(c3nc4c(nnn4Cc4ccc5c(c4)OCCO5)c(=O)[nH]3)CC2)c1 | 23.1 | > 100 |
| Cc1cc(Nc2cc(Cl)nc(Sc3ccc(NC(=O)C4CC4)cc3)n2)n[nH]1 | 26.2 | 45.1 |
| CCC1C(c2ccccc2)N(C)C(c2ccccc2)CC1(O)c1ccccc1 (stereo not given) | 23.2 | 25.5 |
| COC(=O)c1c(NC(=O)C(=O)N2CCCC2)sc2c1CC(C)(C)OC2 | 9.46 | 27.7 |
| S=C1SCN(Cc2ccco2)CN1Cc1ccco1 | 32.7 | 52.3 |
| Cc1nc(N2CCN(c3ccccn3)CC2)c2c(C)c(C(=O)N3CCN(c4ccc(F)cc4)CC3)sc2n1 | 11.1 | 12.5 |
| c1ccc(-c2c3ccccc3nc3[nH]c4ccccc4c23)cc1 | 63.1 | > 100 |
| Nc1cc([N+](=O)[O-])ccc1Nc1ccc(O)cc1 | 30.4 | 34 |
| COc1ccc(C(=O)C2CCCN(C3CSCCSC3)C2)c(C)c1 (stereo not given) | 23.1 | 26.4 |
| CC1Cc2ccccc2N1C(=S)NC(=O)c1ccc(Cl)cc1Cl (stereo not given) | 7.13 | > 100 |
| c1ccc(-c2nc3c(ccc4ccccc43)[nH]2)nc1 | 6.75 | 20.3 |
| CC(C)(C)c1cc(-c2nc(N)nc(N)n2)c(O)c(C(C)(C)C)c1 | 75.9 | 88.9 |
| O=C(OCc1nc2ccccc2s1)c1ccc(Br)o1 | 18.9 | > 100 |
| COc1ccc(C(C)=O)cc1COC(=O)c1ccc2ccccc2n1 | 27.8 | > 100 |
| CC(C(Sc1ccccc1N)c1ccccc1)[N+](=O)[O-] (stereo not given) | 19.4 | > 100 |
| COc1cccc2sc(Nc3nnc(-c4cccs4)o3)nc12 | 23.9 | 27.1 |
| CCC(=O)c1ccc(OCC(=O)OCC(=O)c2cc(C)n(C3CC3)c2C)cc1 | 2.41 | 74.8 |
| COc1cccc2c1C(CO)N1C(C#N)C3CC(C(=O)O)C(C1C2)N3C (stereo not given) | 2.69 | 2.98 |
| CCOC(=O)c1nn(-c2ccc(C)c(C)c2)cc1O | 27.1 | > 100 |
| O=[N+]([O-])/C=C/c1cn(Cc2ccccc2)c2ccccc12 | 82.9 | > 100 |
| CCCCOC(=O)NS(=O)(=O)c1sc(CC(C)C)cc1-c1ccc(Cn2c(CC)nc3c(C)cc(C)nc32)cc1 | 26.4 | 35.4 |

| SMILES | IC50 [µM] | IC90 [µM] |
| --- | --- | --- |
| c1ccc(CC2CCN(C3=Nc4cccc5cccc3c45)CC2)cc1 | 29.3 | 38.1 |
| Cn1nc(-c2ccc(N3CCCCC3)c(NC(=O)c3ccco3)c2)c2ccccc2c1=O | 2.32 | 16.1 |
| COC(=O)CSc1nnc([C@H](CC(C)C)NC(=O)OC(C)(C)C)o1 | 14.5 | 32.9 |
| COc1ccc(N2CCN(C(=O)c3ccc(CNc4c(N5CCOCC5)c(=O)c4=O)cc3)CC2)cc1 | 2.42 | 5.17 |
| Cc1ccc(F)cc1CNC(=O)c1cc(COc2ccc3ncccc3c2)on1 | 29.2 | > 100 |
| Cc1nn(Cc2ccccc2)c(C)c1C(=O)OCC(=O)c1cc(C)n(CC(F)(F)F)c1C | 11.8 | 35.4 |
| O=C(CCS(=O)(=O)c1ccc(F)cc1)Nc1nc(-c2ccccn2)cs1 | 4.5 | 17.1 |
| CCCCCCOC(=O)C(C#N)c1nc2ccccc2nc1N1CCN(CC)CC1 (stereo not given) | 20.1 | 29.7 |
| COc1ccc(-c2nnc(SCC(=O)N3CCc4ccccc4C3)o2)cc1 | 17.6 | 29.2 |
| COc1ccc(C2=NN(C(=O)COC(=O)c3ccc(S(C)(=O)=O)c([N+](=O)[O-])c3)C(c3ccco3)C2)cc1 (stereo not given) | 6.58 | 14.9 |
| O=C(Nc1ccc(OC(F)(F)F)cc1)c1ccc2c(c1)no[n+]2[O-] | < 0.2 | 0.2 |
| N/C(=N\NC(=O)c1sccc1OCc1ccc(Cl)cc1Cl)c1ccccn1 | 15.7 | 46 |
| CN1CCN(c2ccc(C(=O)c3cn(-c4ccc(F)c(Cl)c4)nn3)cc2)CC1 |  | > 100 |
| CC1(C)CC(=O)C2=C(C1)OC(N)=C([N+](=O)[O-])C2c1ccc(C#N)s1 (stereo not given) | 62.2 | > 100 |
| C/C(=N\NC(=O)CC(C)C)c1c(C(F)(F)F)[nH]n(-c2nc3ccccc3s2)c1=O | 42.4 | > 100 |
| COc1ccc(C(=O)Cn2nc(CNc3ccc(Br)cc3)[n+]3c2CCCCC3)cc1 | 9.77 | 13.7 |
| O=C(Oc1ccc2ccccc2c1)c1cncc(Br)c1 | 13 | 60.3 |
| CC1(O)CC(c2ccc(Cl)cc2)=NN1C(=O)c1ccc([N+](=O)[O-])cc1 (stereo not given) | 17.5 | > 100 |
| COc1cc(/C=N/n2c(-c3ccc4c(c3)NC(=O)CO4)csc2=Nc2cccc(C)c2)ccc1O | 34 | > 100 |
| C=CCc1cc(C)ccc1OCCCC(C(=O)OCC)C(=O)OCC | 9.72 | 21.4 |
